1 compound from ChEMBL document CHEMBL1641374, “Synthesis of antiproliferative flavones from calycopterin, major flavonoid of Calycopteris floribunda Lamk” (Bioorg Med Chem, 2011) can be followed below.

The structures appear in SMILES notation.

Common to all, as to assay type: functional
The test system of assay [1] is KB. The assay is described as follows: Induction of cell cycle arrest in human KB cells assessed as accumulation at subG1 phase at 20 nM after 24 hrs by propidium iodide staining-based flow cytometry (reference value: 0.7%). In general terms: In flow cytometry, cells or beads pass a laser one at a time.
Assay [2] deals with KB. The assay is described as follows: Induction of cell cycle arrest in human KB cells assessed as accumulation at G0/G1phase at 20 nM after 24 hrs by propidium iodide staining-based flow cytometry (reference value: 72.9%).
The subject of assay [3] is KB. The assay is described as follows: Induction of cell cycle arrest in human KB cells assessed as accumulation at S phase at 20 nM after 24 hrs by propidium iodide staining-based flow cytometry (reference value: 6.9%).
The test system of assay [4] is KB. The assay is described as follows: Induction of cell cycle arrest in human KB cells assessed as accumulation at G2/M phase at 20 nM after 24 hrs by propidium iodide staining-based flow cytometry (reference value: 19.6%).
Assay [5] deals with KB. The assay is described as follows: Induction of cell cycle arrest in human KB cells assessed as accumulation at subG1 phase at 20 nM after 48 hrs by propidium iodide staining-based flow cytometry (reference value: 1.2%).
The subject of assay [6] is KB. The assay is described as follows: Induction of cell cycle arrest in human KB cells assessed as accumulation at G0/G1phase at 20 nM after 48 hrs by propidium iodide staining-based flow cytometry (reference value: 66.6%).
In assay [7] the test system is KB. The assay is described as follows: Induction of cell cycle arrest in human KB cells assessed as accumulation at S phase at 20 nM after 48 hrs by propidium iodide staining-based flow cytometry (reference value: 18.4%).
Assay [8] deals with KB. The assay is described as follows: Induction of cell cycle arrest in human KB cells assessed as accumulation at G2/M phase at 20 nM after 48 hrs by propidium iodide staining-based flow cytometry (reference value: 13.8%).

As for `COc1ccc(/C=C\c2cc(OC)c(OC)c(OC)c2)cc1O` [COMBRETASTATIN A4], the Activity in assay [1] is recorded as 13.8%; in assay [2], 9.5%; in assay [3], 26.7%; in assay [4] it was 50.1%; in assay [5], 43.5%; in assay [6], 27.4%. Besides, the Activity in assay [7] was found to be 44%; in assay [8], 0.8%.
